Results published in PMC11101759, “Inhibitors of dermatan sulfate epimerase 1 decreased accumulation of glycosaminoglycans in mucopolysaccharidosis type I fibroblasts” (Glycobiology, 2024).

What was measured:
[1] = target: T1, DS-epi1 (truncated form, amino acid 23–775-HIS) (Homo sapiens, UniProt Q9UL01); experiment: DS-epi1 epimerase activity assay; type: biochemical
T1 construct: gene DSE; truncated, residues 23-775, HIS tag

[2] = target: T2, HSepi; heparan sulfate glucuronyl C-5 epimerase (GLCE) (Homo sapiens, UniProt O94923); experiment: HSepi epimerase activity assay, lysate of transfected […]HEK; type: biochemical; conditions: read-out: % inhibition at 1,000 μM
T2 sequence (O94923 29-617): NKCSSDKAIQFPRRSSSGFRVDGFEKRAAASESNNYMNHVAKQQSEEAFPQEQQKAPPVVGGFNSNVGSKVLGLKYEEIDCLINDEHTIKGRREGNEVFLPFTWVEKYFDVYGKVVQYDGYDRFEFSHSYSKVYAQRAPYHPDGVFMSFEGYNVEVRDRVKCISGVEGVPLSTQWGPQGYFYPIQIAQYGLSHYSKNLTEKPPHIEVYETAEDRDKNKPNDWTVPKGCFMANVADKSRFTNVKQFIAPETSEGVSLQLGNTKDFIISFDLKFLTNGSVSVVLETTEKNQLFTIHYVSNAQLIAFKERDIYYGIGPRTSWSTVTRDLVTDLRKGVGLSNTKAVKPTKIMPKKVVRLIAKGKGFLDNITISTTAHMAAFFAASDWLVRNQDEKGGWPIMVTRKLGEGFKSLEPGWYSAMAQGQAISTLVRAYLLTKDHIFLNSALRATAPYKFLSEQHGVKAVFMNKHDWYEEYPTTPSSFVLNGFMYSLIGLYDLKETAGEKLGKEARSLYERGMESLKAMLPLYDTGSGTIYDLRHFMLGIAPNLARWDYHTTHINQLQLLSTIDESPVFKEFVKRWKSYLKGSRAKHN

Structure (SMILES)	IC50 [1] [µM]	inhibition at 1000 µM [2] [%]
CN(c1cc(-c2ccccc2)nc(SCc2ccc(C(=O)O)o2)n1)C1CCCCC1 [compound 3, inhibitor 3]	12	69
CCCN(C)c1cc(-c2ccccc2)nc(SCc2cccc(C(=O)O)c2)n1 [compound 11, inhibitor 11]	16	47
